Columns and labels:
hOGG1 = hOGG1 (Homo sapiens, UniProt O15527); assay: Cas12a-coupled fluorescence assay, 8-oxoG DNA hairpin transducer; type: biochemical
Fpg = target: T1, Fpg (Escherichia coli, UniProt P05523); assay: as above; type: biochemical
T1 sequence (P05523 2-269): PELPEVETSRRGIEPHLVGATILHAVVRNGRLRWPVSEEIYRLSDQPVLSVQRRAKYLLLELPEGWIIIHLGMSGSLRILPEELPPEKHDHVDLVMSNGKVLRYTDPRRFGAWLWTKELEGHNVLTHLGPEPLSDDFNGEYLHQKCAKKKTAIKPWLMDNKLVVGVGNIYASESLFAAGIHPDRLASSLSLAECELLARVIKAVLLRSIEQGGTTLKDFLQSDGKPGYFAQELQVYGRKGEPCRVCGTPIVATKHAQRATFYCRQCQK

Chain of hOGG1 (O15527 whole entry): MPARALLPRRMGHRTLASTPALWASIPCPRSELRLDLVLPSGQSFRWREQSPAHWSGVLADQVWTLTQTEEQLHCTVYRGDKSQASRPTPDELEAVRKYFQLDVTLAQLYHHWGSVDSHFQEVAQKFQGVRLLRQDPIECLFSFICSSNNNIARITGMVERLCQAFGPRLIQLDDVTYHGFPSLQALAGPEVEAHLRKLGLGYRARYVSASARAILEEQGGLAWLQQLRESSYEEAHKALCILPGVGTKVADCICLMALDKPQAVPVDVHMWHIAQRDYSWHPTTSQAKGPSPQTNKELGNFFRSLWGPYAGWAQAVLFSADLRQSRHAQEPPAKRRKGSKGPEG

Row | IC50 (hOGG1) [µM] | IC50 (Fpg) [µM] | SMILES
1 | 2.5 ± 0.5 | – | NNC(=O)c1sc2cccc(Cl)c2c1Cl [Inh#1, O8]
2 | 11.9 ± 0.4 | 70.3 ± 0.7 | O=c1[nH]c2[nH]c(=S)[nH]c(=O)c2[nH]1 [Inh#4, Mercapto-6,8-purinediol]

— doi:10.1101/2025.07.11.664310v1 (biorxiv, 2025)
